Assay results reported in ChEMBL document CHEMBL5724914, “Linking interpersonal differences in gut microbiota composition and drug biotransformation activity” (2024).

What was measured:
[1] = human gut metagenome, 24 h, 2 µM
[2] = human gut metagenome, 24 h, 2 µM; remark: listed apart in the source
[3] = (§1) The drug is tested on WLS-027 corresponding to human gut metagenome with ENA study accession number: PRJEB37062 and ENA sample accession number: ERS12561744 for biotransformation under anaerobic condition. The drug concentrations were measured over 9 timepoints collected between 0 and 24 hours of incubation by liquid-chromatography-coupled mass spectrometry (LC–MS); conditions: 2 µM
[4] = human gut metagenome, 24 h, 2 µM; remark: listed apart in the source
[5] = as §1, with “Z-021” for “WLS-027”, “to” for “to human gut”, “ERS12561820” for “ERS12561744”; conditions: 2 µM
[6] = as §1, with “Z-017” for “WLS-027”, “mouse” for “human”, “ERS12561816” for “ERS12561744”; conditions: 2 µM
[7] = human gut metagenome, 24 h, 2 µM; remark: listed apart in the source
[8] = as §1, with “WLS-170” for “WLS-027”, “ERS12561762” for “ERS12561744”; conditions: 2 µM
[9] = as §1, with “WLS-052” for “WLS-027”, “ERS12561747” for “ERS12561744”; conditions: 2 µM
[10] = as §1, with “Z-002” for “WLS-027”, “rabbit” for “human”, “ERS12561802” for “ERS12561744”; conditions: 2 µM
[11] = as §1, with “Z-001” for “WLS-027”, “mouse” for “human”, “ERS12561801” for “ERS12561744”; conditions: 2 µM
[12] = as §1, with “WLS-350” for “WLS-027”, “ERS12561789” for “ERS12561744”; conditions: 2 µM
[13] = human gut metagenome, 24 h, 2 µM; remark: listed apart in the source
[14] = human gut metagenome, 24 h, 2 µM; remark: listed apart in the source
[15] = human gut metagenome, 24 h, 2 µM; remark: listed apart in the source
[16] = human gut metagenome, 24 h, 2 µM; remark: listed apart in the source
[17] = as §1, with “Z-012” for “WLS-027”, “to” for “to human gut”, “ERS12561812” for “ERS12561744”; conditions: 2 µM
[18] = as §1, with “Z-007” for “WLS-027”, “rat” for “human”, “ERS12561807” for “ERS12561744”; conditions: 2 µM
[19] = human gut metagenome, 24 h, 2 µM; remark: listed apart in the source
[20] = human gut metagenome, 24 h, 2 µM; remark: listed apart in the source
Further: call rule not given here.

Row | Bacterial Biotransformation [1] | Bacterial Biotransformation [2] | Bacterial Biotransformation [3] | Bacterial Biotransformation [4] | Bacterial Biotransformation [5] | Bacterial Biotransformation [6] | Bacterial Biotransformation [7] | Bacterial Biotransformation [8] | Bacterial Biotransformation [9] | Bacterial Biotransformation [10] | Bacterial Biotransformation [11] | Bacterial Biotransformation [12] | Bacterial Biotransformation [13] | Bacterial Biotransformation [14] | Bacterial Biotransformation [15] | Bacterial Biotransformation [16] | Bacterial Biotransformation [17] | Bacterial Biotransformation [18] | Bacterial Biotransformation [19] | Bacterial Biotransformation [20] | SMILES
1 | Compound metabolized | Compound NOT metabolized | Compound NOT metabolized | Compound NOT metabolized | Compound metabolized | Compound NOT metabolized | Compound NOT metabolized | Compound metabolized | Compound NOT metabolized | Compound metabolized | Compound NOT metabolized | Compound NOT metabolized | Compound NOT metabolized | Compound NOT metabolized | Compound metabolized | Compound metabolized | Compound NOT metabolized | Compound NOT metabolized | Compound NOT metabolized | Compound metabolized | C=CCc1ccccc1OCC(O)CNC(C)C (stereo not given) [ALPRENOLOL]
2 | Compound metabolized | Compound metabolized | Compound metabolized | Compound metabolized | Compound NOT metabolized | Compound NOT metabolized | Compound NOT metabolized | Compound metabolized | Compound metabolized | Compound metabolized | Compound NOT metabolized | Compound metabolized | Compound NOT metabolized | Compound metabolized | Compound metabolized | Compound metabolized | Compound NOT metabolized | Compound NOT metabolized | Compound NOT metabolized | Compound NOT metabolized | CC(C)c1c(C(=O)Nc2ccccc2)c(-c2ccccc2)c(-c2ccc(F)cc2)n1CC[C@@H](O)C[C@@H](O)CC(=O)O [ATORVASTATIN]
3 | Compound metabolized | Compound metabolized | Compound metabolized | Compound NOT metabolized | Compound metabolized | Compound metabolized | Compound NOT metabolized | Compound metabolized | Compound metabolized | Compound metabolized | Compound metabolized | Compound metabolized | Compound metabolized | Compound metabolized | Compound metabolized | Compound metabolized | Compound metabolized | Compound metabolized | Compound metabolized | Compound metabolized | CCOC(=O)[C@H](CCc1ccccc1)N[C@H]1CCc2ccccc2N(CC(=O)O)C1=O [BENAZEPRIL]
4 | Compound NOT metabolized | Compound NOT metabolized | Compound NOT metabolized | Compound NOT metabolized | Compound metabolized | Compound NOT metabolized | Compound NOT metabolized | Compound NOT metabolized | Compound NOT metabolized | Compound metabolized | Compound NOT metabolized | Compound NOT metabolized | Compound NOT metabolized | Compound NOT metabolized | Compound NOT metabolized | Compound NOT metabolized | Compound NOT metabolized | Compound NOT metabolized | Compound NOT metabolized | Compound NOT metabolized | NS(=O)(=O)c1cc2c(cc1Cl)N=C(CSCc1ccccc1)NS2(=O)=O [BENZTHIAZIDE]
